{"source": "patent US8957094B2", "about": "“Therapeutic agent or prophylactic agent for fibromyalgia” (Toray Industries, Inc., priority 2010, dated 2015)", "key": {"[1]": {"test_system": "mouse partial sciatic nerve ligation model", "assay": "Mouse partial sciatic nerve ligation model (Seltzer model), von Frey test (neuropathic pain)", "assay_type": "in vivo", "parameters": "von Frey Total Score of 1 Hour after Oral Administration (Mean ± S.E.), Test Compound-Administered Group: scale not given here", "details": "for Score Improvement %: 1 hour after administration, relative to vehicle and sham surgery groups; for von Frey Total Score of 1 Hour after Oral Administration (Mean ± S.E.), Test Compound-Administered Group: n = 5-6, 7 days after ligation", "protocol": "Mouse models of partial sciatic nerve ligation were prepared according to Seltzer's method (Malmberg et al., Pain, 1998, vol. 76, p. 215-222). Male ICR mice of 5 weeks old were anesthetized with Sodium pentobarbital (70 mg/kg, i.p.), and thereafter, the sciatic nerve at the femoral region of the right hindlimb of each mouse was exposed, and the sciatic nerve was triply ligated tightly with silk suture of 8-0 (NATSUME SEISAKUSHO) under microscope so that only half thickness of the nerve was trapped in the ligature, which mice were used as a ligation group. The mice whose sciatic nerves were exposed but not ligated were used as a sham surgery group.\nEvaluation of neuropathic pain (hereinafter “von Frey test”) was carried out as follows. Mice were conditioned for at least 1 hour in an acryl cage for measurement (NATSUME SEISAKUSHO) placed on a wire net. Thereafter, using a filament (North Coast Medical, Inc. CA, USA) which exerted a pressure of 0.16 g, the mice were subjected to mechanical tactile stimulus by applying the filament to the plantar surface of both hindpaws 3 times, each for 3 seconds, with an interval of 3 seconds.\nSeven days after the sciatic nerve ligation, test compounds were orally administered to the mice. Prior to the oral administration of the test compounds, the von Frey test was carried out to split the animals of the ligation group into vehicle groups and test compound-administered groups so that the sums of the total scores of the groups were equalized. The mice of the sham surgery groups, the vehicle groups and the test compound-administered groups were subjected to the von Frey test 1 hour, 2 hours and 3 hours after oral administration of a vehicle or a test compound, and the obtained scores were used as an indicator of analgesic effect. As a vehicle of test compound solution or suspension, DMSO:Tween80:distilled water (1:1:8), 27% HP-β-CD or 0.5% MC was used.\nFor evaluation of drug efficacy, data were statistically processed by unpaired multigroup t test (adjusted by Dunnett), taking the vehicle group of each measurement time as a control."}, "[2]": {"test_system": "rat fibromyalgia model", "assay": "Effects on rat fibromyalgia model (acidic saline injection; allodynia by von Frey filaments)", "assay_type": "in vivo", "details": "compared with the vehicle group, Day 7, 1-3 h after dosing, p<0.05, FIG. 1", "protocol": "In the experiments, 5 to 6 male SD rats of 6 to 7 weeks old were used for one experimental group. One hundred microliters of acidic physiological saline with pH of 4.0 was injected twice (taking the day when administration of acidic physiological saline started as Day 1, the administration was carried out once on Day 1 and once on Day 6) to gastrocnemius muscle of right hindlimb of each anesthetized rat to prepare a rat fibromyalgia model (Sluka et al., J. Pharmacol. Exp. Ther., 2002, vol. 302, p. 1146; Nagakura et al., Pain, 2009, vol. 146, p. 26; Sluka et al., Pain, 2009, vol. 146, p. 3), which was considered to reflect clinical symptoms of fibromyalgia based on their pharmacological characteristics and thus widely used in basic studies of fibromyalgia. In the same manner, physiological saline was administered to the control group.\nFor measurement of allodynia observed in a rat fibromyalgia model, a 50% withdrawal threshold (g) was determined using von Frey filaments in accordance with the method described in Chaplan et al., J. Neurosci. Methods, 1994, vol. 53, p. 55. On Day 7, allodynia was measured before oral administration of the test compound as Pre, and 1-, 2- and 3-hour after oral administration of the test compound. Rats which developed allodynia by receiving intramuscular injection of acidic physiological saline were used as a rat fibromyalgia model to evaluate the analgesic effect of the test compound. The term “rats which developed allodynia” herein means the rats showing a 50% withdrawal threshold (g) (the mean value of right and left hind paws) of 6 g or less. Pregabalin was used as a positive control.\nCompound 3, which is included in Compound (I), was suspended in 0.5% methylcellulose solution (hereinafter “0.5% MC”) to a concentration of 5 mg/mL or 10 mg/mL, and orally administered at an administration volume of 1 mL per 1 kg body weight. Pregabalin was suspended in 0.5% MC to a concentration of 10 mg/mL, and orally administered at an administration volume of 1 mL per 1 kg body weight. The vehicle group received oral administration of 0.5% MC. […]"}, "[3]": {"test_system": "fibromyalgia", "details": "reported, Abeles et al., Am J. Med., 2008; cited from earlier work"}}, "data": [{"molecule": "COc1ccc(-n2nc(C3(O)CCC(O)CC3)cc2-c2ccc(C)cc2)cc1", "note": "(single isomer, unassigned) [Compound 2, 1-(1-(4-methoxyphenyl)-5-(p-tolyl)-1H-pyrazol-3-yl)cyclohexan-trans-1,4-diol]", "values": [{"measurement": "Score Improvement %", "setting": "[1]; dose 0.3 mg/kg oral, 0.3 mg/kg", "result": 104, "unit": "%"}, {"measurement": "von Frey Total Score of 1 Hour after Oral Administration (Mean ± S.E.), Test Compound-Administered Group", "setting": "[1]; dose 0.3 mg/kg oral, 0.3 mg/kg", "result": "0.8 ± 0.5"}]}, {"molecule": "COc1ccc(-n2nc(C3(O)CCC(O)CC3)cc2-c2ccc(C)cc2)cc1", "note": "(single isomer, unassigned) [Compound 3, 1-(1-(4-methoxyphenyl)-5-(p-tolyl)-1H-pyrazol-3-yl)cyclohexan-cis-1,4-diol]", "values": [{"measurement": "Score Improvement %", "setting": "[1]; dose 0.3 mg/kg oral, 0.3 mg/kg", "result": 83, "unit": "%"}, {"measurement": "von Frey Total Score of 1 Hour after Oral Administration (Mean ± S.E.), Test Compound-Administered Group", "setting": "[1]; dose 0.3 mg/kg oral, 0.3 mg/kg", "result": "1.2 ± 0.8"}, {"measurement": "allodynia observed in the rat fibromyalgia model (50% withdrawal threshold)", "setting": "[2]; oral administration 5 mg/kg", "result": "significantly improved allodynia"}, {"measurement": "allodynia observed in the rat fibromyalgia model (50% withdrawal threshold)", "setting": "[2]; oral administration 10 mg/kg", "result": "significantly improved allodynia"}]}, {"molecule": "COc1ccc(-c2cc(C3(O)CCC(O)CC3)nn2-c2ccc(OC)cc2)cc1", "note": "(stereo not drawn) [Compound 8, 1-(1,5-bis(4-methoxyphenyl)-1H-pyrazol-3-yl)cyclohexan-cis-1,4-diol]", "values": [{"measurement": "von Frey Total Score of 1 Hour after Oral Administration (Mean ± S.E.), Test Compound-Administered Group", "setting": "[1]; dose 10 mg/kg oral", "result": "2.2 ± 0.5"}]}, {"molecule": "COc1ccc(-n2nc(C3(O)CCC(O)CC3)c(Cl)c2-c2ccc(C)cc2)cc1", "note": "(stereo not drawn) [Compound 9, 1-(4-chloro-1-(4-methoxyphenyl)-5-(p-tolyl)-1H-pyrazol-3-yl)cyclohexan-cis-1,4-diol]", "values": [{"measurement": "von Frey Total Score of 1 Hour after Oral Administration (Mean ± S.E.), Test Compound-Administered Group", "setting": "[1]; dose 10 mg/kg oral", "result": "1.7 ± 0.6"}]}, {"molecule": "COc1ccc(-n2nc(C3(O)CCC(O)(C(F)(F)F)CC3)cc2-c2ccc(C)cc2)cc1", "note": "(stereo not drawn) [Compound 10, 1-(1-(4-methoxyphenyl)-5-(p-tolyl)-1H-pyrazol-3-yl)-4-(trifluoromethyl)cyclohexan-cis-1,4-diol]", "values": [{"measurement": "von Frey Total Score of 1 Hour after Oral Administration (Mean ± S.E.), Test Compound-Administered Group", "setting": "[1]; dose 1 mg/kg oral", "result": "1.5 ± 0.5"}]}, {"molecule": "COc1ccc(-n2nc(C3(O)CCC(C(=O)O)CC3)cc2-c2ccc(C)cc2)cc1", "note": "(stereo not drawn) [Compound 16, 4-hydroxy-4-(1-(4-methoxyphenyl)-5-(p-tolyl)-1H-pyrazol-3-yl)-cis-cyclohexanecarboxylic acid]", "values": [{"measurement": "von Frey Total Score of 1 Hour after Oral Administration (Mean ± S.E.), Test Compound-Administered Group", "setting": "[1]; dose 1 mg/kg oral", "result": "2.3 ± 0.5"}]}, {"molecule": "COc1ccc(-c2nc(C3(O)CCC(O)CC3)oc2-c2ccc(OC)cc2)cc1", "note": "(stereo not drawn) [Compound 43, 4-(4,5-bis(4-methoxyphenyl)oxazol-2-yl)cyclohexan-cis-1,4-diol]", "values": [{"measurement": "von Frey Total Score of 1 Hour after Oral Administration (Mean ± S.E.), Test Compound-Administered Group", "setting": "[1]; dose 10 mg/kg oral", "result": "0.8 ± 0.7"}]}, {"molecule": "COc1ccc(-n2nc(C3(O)CCC(O)CC3)cc2-c2ccc(C)cc2)cc1F", "note": "(stereo not shown) [Compound 54]", "values": [{"measurement": "von Frey Total Score of 1 Hour after Oral Administration (Mean ± S.E.), Test Compound-Administered Group", "setting": "[1]; dose 10 mg/kg oral", "result": "1.2 ± 0.6"}]}, {"molecule": "COc1ccc(-n2nc(C3(O)CCC(O)CC3)cc2-c2ccc(C)c(F)c2)cc1", "note": "(stereo not shown) [Compound 55]", "values": [{"measurement": "von Frey Total Score of 1 Hour after Oral Administration (Mean ± S.E.), Test Compound-Administered Group", "setting": "[1]; dose 3 mg/kg oral", "result": "0.7 ± 0.5"}]}, {"molecule": "CC(C)Cc1ccc(C(C)C(=O)O)cc1", "note": "(stereo not shown) [ibuprofen]", "values": [{"measurement": "analgesic effect in treating fibromyalgia", "setting": "[3]", "result": "any statistically significant analgesic effect is not observed"}]}, {"molecule": "COc1ccc2cc([C@H](C)C(=O)O)ccc2c1", "note": "[naproxen]", "values": [{"measurement": "analgesic effect in treating fibromyalgia", "setting": "[3]", "result": "any statistically significant analgesic effect is not observed"}]}, {"molecule": "CC(C)C[C@H](CN)CC(=O)O", "note": "[pregabalin, reference compound]", "values": [{"measurement": "allodynia observed in the rat fibromyalgia model (50% withdrawal threshold)", "setting": "[2]; oral administration 10 mg/kg", "result": "significantly improved allodynia"}]}]}
